These molecules were tested on HSV-1 (assay: HSV-1 replication in infected Vero 76 cells, DNA hybridization capture assay). Settings: Human alphaherpesvirus 1, Vero 76.
Assay type: cell-based, herpes simplex virus 1
Procedure: a) Tissue Culture and HSV Infection.
Vero 76 cells were maintained in MEM with Earle's salts, L-glutamine, 8% FBS (Hyclone, A-1111-L) and 100 units/mL Penicillin-100 μg/mL Streptomycin. For assay conditions, FBS was reduced to 2%. Cells are seeded into 96-well tissue culture plates at a density of 5×10^4 cells/well after being incubated for 45 min at 37° C. in the presence of HSV-1 or HSV-2 (MOI=0.001). Test compounds are added to the wells and the plates are incubated at 37° C. for 40-48 hours. Cell lysates are prepared as follows: media was removed and replaced with 150 μL/well 0.2 N NaOH with 1% Igepal CA 630 or NP-40. Plates were incubated up to 14 days at room temperature in a humidified chamber to prevent evaporation.
(b) Preparation of Detection DNA.
For the detection probe, a gel-purified, digoxigenin-labeled, […] PCR fragment of the HSV UL-15 sequence was utilized. PCR conditions included 0.5 μM primers, 180 μM dTTP, 20 μM dUTP-digoxigenin (Boehringer Mannheim 1558706), 200 μM each of dATP, dCTP, and dGTP, 1×PCR Buffer II (Perkin Elmer), 2.5 mM MgCl2, 0.025 units/μL of AmpliTaq Gold polymerase (Perkin Elmer), and 5 ng of gel-purified HSV DNA per 100 μL Extension conditions were 10 min at 95° C., followed by 30 cycles of 95° C. for 1 min, 55° C. for 30 sec, and 72° C. for 2 min. The amplification was completed with a 10-min incubation at 72° C. Primers were selected to amplify a 728 bp probe spanning a section of the HSV1 UL15 open reading frame (nucleotides 249-977). Single-stranded transcripts were purified with Promega M13 Wizard kits. The final product was mixed 1:1 with a mixture of 6 M GuSCN, 100 mM EDTA and 200 μg/mL herring sperm DNA and stored at 4° C.
(c) Preparation of Capture Plates.
The capture DNA plasmid (HSV UL13 region in pUC) was linearized by cutting with Xba I, denatured for 15 min at 95° C. and diluted immediately into Reacti-Bind DNA Coating Solution (Pierce, 17250, diluted 1:1 with TE buffer, pH 8) at 1 ng/μL. 75 μL/well were added to Corning (#3922 or 9690) white 96-well plates and incubated at room temperature for at least 4 hrs before washing twice with 300 μL/well 0.2×SSC/0.05% Tween-20 (SSC/T buffer). The plates were then incubated overnight at room temperature with 150 μL/well 0.2 N NaOH, 1% IGEPAL and 10 μg/mL herring sperm DNA.
Twenty-seven (27) μL of cell lysate was combined with 45 μL of hybridization solution (final concentration: 3M GuSCN, 50 mM EDTA, 100 μg/ml salmon sperm DNA, 5×Denhardt's solution, 0.25×APE, and 5 ng of the digoxigenin-labeled detection probe). APE is 1.5 M NH4-acetate, 0.15 M NH4H2 phosphate, and 5 mM EDTA adjusted to pH 6.0. Mineral oil (50 μL) was added to prevent evaporation. The hybridization plates were incubated at 95° C. for 10 minutes to denature the DNA, then incubated at 42° C. overnight. The wells were washed 6× with 300 μL/well SSC/T buffer then incubated with 75 μL/well anti-digoxigenin-HRP-conjugated antibody (Boehringer Mannheim 1207733, 1:5000 in TE) for 30 min at room temperature. The wells were washed 6× with 300 μL/well with PBS/0.05% Tween-20 before 75 μL/well SuperSignal LBA substrate (Pierce) was added. The plates were incubated at room temperature for 30 minutes and chemiluminescence was measured in a Wallac Victor reader.
The following results were obtained for HSV-1.

Structure (SMILES)	IC50 [nM]
CN1CCN(CCCNc2nccc(-c3c(-c4ccc(F)cc4)nn4cc(C(F)(F)F)ccc34)n2)CC1 [Example 32, N-{4-[2-(4-fluorophenyl)-6-(trifluoromethyl)pyrazolo-[1,5-a]pyridin-3-yl]pyrimidin-2-yl}-N-[3-(4-methylpiperazin-1-yl)propyl]amine]	10000

Same assay, conditions: Human alphaherpesvirus 1; HSV-1 in Vero 76 cells, MOI=0.001, 40-48 hours at 37° C.; read-out: IC50

Structure (SMILES)	IC50 [nM]
Fc1ccc(-c2nn3ccc(Cl)cc3c2-c2nc(NC3CCCC3)ncc2Br)cc1 [Example 93, 5-Bromo-4-[5-chloro-2-(4-fluorophenyl)pyrazolo[1,5-a]pyridin-3-yl]-N-cyclopentyl pyrimidin-2-amine]	2600
CC(C)Sc1cc(N2CCOCC2)cc2c(-c3ccnc(NC4CCCC4)n3)c(-c3ccc(F)cc3)nn12 [Example 232, N-Cyclopentyl-4-[2-(4-fluorophenyl)-7-(isopropylthio)-5-morpholin-4-ylpyrazolo[1,5-a]pyridin-3-yl]pyrimidin-2-amine]	900
CN(C)C(=O)c1cccc2c(-c3ccnc(NC4CC4)n3)c(-c3ccc(F)cc3)nn12 [Example 88, Dimethyl 2-(4-fluorophenyl)-3-(4-(2-cyclopropylamino)pyrimidinyl)-7-pyrazolo[1,5-a]pyridinylcarboxamide]	15000
C=CCNc1cc(-c2c(-c3ccc(F)cc3)nn3ccccc23)ccn1 [Example 42, N-Allyl-4-[2-(4-fluorophenyl)pyrazolo-[1,5-a]pyridin-3-yl]-2-pyridinamine]	5000
CNc1cc(-c2c(-c3ccc(F)cc3)nn3ccccc23)cc(F)n1 [Example 40, 6-Fluoro-4-[2-(4-fluorophenyl)-pyrazolo[1,5-a]pyridin-3-yl]-N-methyl-2-pyridinamine]	5300
Fc1ccc(-c2nn3ccccc3c2-c2cc(-c3ccccc3)nc(NC3CCCC3)n2)cc1 [Example 49, N-Cyclopentyl-4-[2-(4-fluorophenyl)pyrazolo[1,5-a]pyridin-3-yl]-6-phenyl-2-pyrimidinamine]	2900
CCCCOc1cc(-c2c(-c3ccc(F)cc3)nn3ccccc23)ccn1 [Example 91, 3-(2-Butoxypyridin-4-yl)-2-(4-fluorophenyl)pyrazolo[1,5-a]pyridine]	11000
OCCNc1cc(-c2c(-c3ccc(F)cc3)nn3ccccc23)ccn1 [Example 9, 2-(4-[2-(4-Fluorophenyl)pyrazolo[1,5-a]pyridin-3-yl]-2-pyridinylamino)-1-ethanol]	2400
CCCCNc1cc(-c2c(-c3ccc(F)cc3)nn3ccccc23)ccn1 [Example 2, N-Butyl-4-[2-(4-fluorophenyl)pyrazolo[1,5-a]pyridin-3-yl]-2-pyridinamine]	1600
Fc1ccc(-c2nn3ccccc3c2-c2ccnc(NCCc3cnc[nH]3)c2)cc1 [Example 1, 4-[2-(4-Fluorophenyl)pyrazolo[1,5-a]pyridin-3-yl]-N-[2-(1H-imidazol-5-yl)ethyl]-2-pyridinamine]	700
Fc1ccc(-c2nn3cc(Cl)ccc3c2-c2ccc(NC3CC3)nc2)cc1 [Example 43, 5-[6-Chloro-2-(4-fluorophenyl)-pyrazolo[1,5-a]pyridin-3-yl]-N-cyclopropyl-2-pyridinamine]	2400
NCCCNc1cc(-c2c(-c3ccc(F)cc3)nn3ccccc23)ccn1 [Example 4, N^1-4-[2-(4-Fluorophenyl)pyrazolo[1,5-a]pyridin-3-yl]-2-pyridinyl-1,3-propanediamine]	20000
Cc1c(C(=O)NC2CC2)ccc2c(-c3ccnc(NC4CCCC4)n3)c(-c3ccc(F)cc3)nn12 [Example 83, 3-[2-(Cyclopentylamino)-4-pyrimidinyl]-N-cyclopropyl-2-(4-fluorophenyl)-7-methylpyrazolo[1,5-a]pyridine-6-carboxamide]	1000
Fc1ccc(-c2nn3c(OCC(F)(F)F)cccc3c2-c2ccnc(Oc3ccccc3)n2)cc1 [Example 67, 2-(4-Fluorophenyl)-3-(4-(2-phenyloxy)pyrimidinyl)-7-(2,2,2-trifluoroethoxy)pyrazolo[1,5-a]pyridine]	15000

Now from value to molecule:

IC50 [nM]	Structure (SMILES)
> 40000	Nc1nccc(-c2c(-c3ccc(F)cc3)nn3cc(C(F)(F)F)ccc23)n1 [Example 19, 4-[2-(4-Fluorophenyl)-6-trifluoromethylpyrazolo[1,5-a]pyridin-3-yl]-2-pyrimidinamine]
2000	Fc1ccc(-c2nn3c(OCC(F)(F)F)cccc3c2-c2ccnc(NC3CC3)n2)cc1 [Example 62, N-Cyclopropyl-4-[2-(4-fluorophenyl)-7-(2,2,2-trifluoroethoxy)pyrazolo [1,5-a]pyridin-3-yl]-2-pyrimidinamine]
600	CCCCNc1nccc(-c2c(-c3ccc(F)cc3)nn3c(CCCC)cccc23)n1 [Example 84, N-Butyl-4-[7-butyl-2-(4-fluorophenyl)pyrazolo[1,5-a]pyridin-3-yl]-2-pyrimidinamine]
5400	Nc1nccc(-c2c(-c3ccc(F)cc3)nn3ccccc23)n1 [Example 18, 4-[2-(4-Fluorophenyl)pyrazolo[1,5-a]pyridin-3-yl]-2-pyrimidinamine]
1000	OCCCNc1nccc(-c2c(-c3ccc(F)cc3)nn3cc(C(F)(F)F)ccc23)n1 [Example 23, 3-(4-[2-(4-Fluorophenyl)-6-trifluoromethylpyrazolo[1,5-a]pyridin-3-yl]-2-pyrimidinylamino)-1-propanol]
1500	CC(C)Nc1nccc(-c2c(-c3ccc(F)cc3)nn3ccccc23)n1 [Example 17, 4-[2-(4-Fluorophenyl)pyrazolo[1,5-a]pyridin-3-yl]-N-(2-propyl)-2-pyrimidinamine]
10000	Fc1ccc(-c2nn3ccccc3c2-c2ccnc(NCc3ccncc3)n2)cc1 [Example 29, 4-[2-(4-Fluorophenyl)pyrazolo[1,5-a]pyridin-3-yl]-N-(4-pyridinylmethyl)-2-pyrimidinamine]
1200	CC(C)Nc1cc(-c2c(-c3ccc(F)cc3)nn3cc(C(F)(F)F)ccc23)ccn1 [Example 13, 4-[2-(4-Fluorophenyl)-6-trifluoromethylpyrazolo[1,5-a]pyridin-3-yl]-N-isopropyl-2-pyridinamine]
800	Fc1ccc(-c2nn3cc(C(F)(F)F)ccc3c2-c2ccnc(NC3CC3)n2)cc1 [Example 21, N-Cyclopropyl-4-[2-(4-fluorophenyl)-6-trifluoromethylpyrazolo[1,5-a]pyridin-3-yl]-2-pyrimidinamine]
4300	Fc1ccc(-c2nn3cc(C(F)(F)F)ccc3c2-c2ccnc(NCC(F)(F)F)n2)cc1 [Example 22, 4-[2-(4-Fluorophenyl)-6-trifluoromethylpyrazolo[1,5-a]pyridin-3-yl]-N-(2,2,2-trifluoroethyl)-2-pyrimidinamine]
2500	CCCCNc1nccc(-c2c(-c3ccc(F)cc3)nn3c(OCCF)cccc23)n1 [Example 57, N-Butyl-4-[7-(2-fluoroethoxy)-2-(4-fluorophenyl)pyrazolo[1,5-a]pyridin-3-yl]-2-pyrimidinamine]
500	Fc1ccc(-c2nn3ccccc3c2-c2ccnc(NCc3cccnc3)n2)cc1 [Example 27, 4-[2-(4-Fluorophenyl)pyrazolo[1,5-a]pyridin-3-yl]-N-(3-pyridinylmethyl)-2-pyrimidinamine]
5000	Fc1ccc(-c2nn3ccc(Cl)cc3c2-c2ccnc(NC3CCCC3)n2)cc1 [Example 36, 4-[5-Chloro-2-(4-fluorophenyl)pyrazolo[1,5-a]pyridin-3-yl]-N-cyclopentyl-2-pyrimidinamine]
27000	COc1ccc(-c2nn3cc(C(F)(F)F)ccc3c2-c2ccnc(NC3CC3)n2)cc1 [Example 95, N-Cyclopropyl-4-[2-(4-methoxyphenyl)-6-(trifluoromethyl)pyrazolo[1,5-a]pyridin-3-yl]pyrimidin-2-amine]

Source: patent US20050107400A1, “Use of pyrazolopyridines as therapeutic compounds” (priority 2001, published 2005)
